Test results: patent publication US20090078651A1, “Mung Water Treatment Method” (ReNew Systems, Inc., priority 2007, published 2009)

Tests used:
[1] = designed property; cited from earlier work
[2] = tested on: bacteria colonies from mung water; assay: Most probable number plates of treated mung water samples (bacteria colony counts); assay type: cell-based; details: for colonies counted, Most Probable Number Plates: T = 24
Description: On 27 Sep. 2006 an experimental was conducted to compare the effects of treating mung water with DBNPA only to the effects of treating mung water with both DBNPA and Odor-Out®. The experiment was set-up in 250 ml baffled shake flasks with dispo plugs. The Odor Out® solutions used in this experiment were “aged”, having been prepared on 12 Sep. 2006 in tap water. The DBNPA solution was made up just prior to making additions to the flasks and was made using distilled water. After mung water samples and DBNPA and Odor Out® treatment additives were added, the flasks were placed in an incubation shaker set at 30 degrees C. and shaken at 100 rpm. The experiment was started at 2:30 p.m. on 27 Sep. 2006. The flasks were shaken for 2½ hours at which point the shaker was turned off and the flasks were allowed to incubate in a stationary position overnight. The next day, on 28 Sep. 2006 from 11 a.m.-2 p.m., serial dilutions were made up and most probable number plates were prepared. The plates were incubated overnight at 30 degrees C. On 29 Sep.

Structure (SMILES): N#CC(Br)(Br)C(N)=O [DBNPA, 2.2-dibromo-3-nitrilopropionamide]
- time to biodegrade after introduction into a recirculating water system [1]: ≤ 48 h
- colonies counted, Most Probable Number Plates ([2]; Straight, DBNPA 0.05% 10 μl in 50 ml mung water, no Odor Out (1a)): TNC (the colonies on the plates were too numerous to count (>300))
- colonies counted, Most Probable Number Plates ([2]; dilution 10^−1, DBNPA 0.05% 10 μl in 50 ml mung water, no Odor Out (1a)): TNC (the colonies on the plates were too numerous to count (>300))
- colonies counted, Most Probable Number Plates ([2]; dilution 10^−2, DBNPA only (1a)): 5
- colonies counted, Most Probable Number Plates ([2]; dilution 10^−3, DBNPA only (1a)): 1
- colonies counted, Most Probable Number Plates ([2]; dilution 10^−4, DBNPA only (1a)): 0
- colonies counted, Most Probable Number Plates ([2]; dilution 10^−5, DBNPA only (1a)): 0
- colonies counted, Most Probable Number Plates ([2]; dilution 10^−6, DBNPA only (1a)): 0
- colonies counted, Most Probable Number Plates ([2]; dilution 10^−7, DBNPA only (1a)): 0
- bacteria colony counts, change ([2]; mung water samples treated only with DBNPA): moderate reductions
